Results reported in patent US20180360790A1, “NUTRITIONAL COMPOSITIONS AND INFANT FORMULAS TO PROMOTE MYELINATION IN THE BRAIN” (NESTEC S.A., priority 2015, published 2018).

Tested on: brain myelination (myelin water fraction)
Test: Cross-sectional correlation of infant formula nutrient composition with brain myelination (mcDESPOT MRI, general linear model)
Assay type: in vivo, infants and young children
Conditions: single GLM of quantified formula nutrients and child age vs myelin water fraction; children up to 5 years; 5 most frequently used formulas
Description: This technique provides a quantitative measure, the Myelin Water Fraction (MWF), which is a surrogate marker of myelin content. When mapped as a function of time across early childhood, myelination trajectories can be generated. Infant formula composition: six infant formulas fed to infants participating in study were analyzed for their composition/level of myelin-relevant nutrients. […] Infants included in this study were drawn from a larger longitudinal study of normal brain and behavioral development: the Brown university Assessment of Myelination and Behavior Across Maturation (BAMBAM). To focus on neurotypical development, children with known potential risk factors for learning, neurologic, or psychiatric disorders were specifically excluded during recruitment and enrollment. […] Each infant was scanned using the mcDESPOT (multicomponent Driven Equilibrium Single Pulse Observation of T1 and T2) white matter imaging technique Deoni et al. (Magn. Reson. Med. 2008, 60:1372-1387), which provides a quantitative measure of the myelin water fraction (MWF) at each imaging point throughout the brain. […] Mean values for each region were then determined for each child and used for subsequent developmental analysis and trajectory modeling.

Substance | nutritional drivers for myelination indicated by the final model
sphingomyelin | identified drivers
Iron | identified drivers
